We go through 90 compounds from a melting point compilation (Tetko et al.; mined from patent text by program, amines drawn as free bases though some values may be those of a salt).

Broadly, the melting point is the temperature, or range, at which the solid turns liquid.

`N#CC1Sc2ccccc2N1C(=O)c1ccc(F)cc1` (stereo not given): the melting point is 150 to 151 °C. The value for `CC(C)C1CCC(C(=O)N[C@H](Cc2ccccc2)C(=O)O)CC1` (stereo not given in full) was 129 to 130 °C; that for `OC1(c2ccc(F)cc2)N=C2SCCN2C1c1ccc(F)cc1` (stereo not given) was 159 to 160 °C; that for `CC(C)Oc1ccc2ncn(/C=C/C(=O)O)c(=O)c2c1` was 232 to 234 °C.

`CCOC(=O)c1cncc(-c2cnc3c(c2)N(Cc2cc(F)ccc2F)CCN3)c1` showed a melting point of 169 to 172 °C. Regarding `CCOC(=O)c1ccc(OCCCc2ccc(OC)c(OC)c2)cc1`, the melting point lay within 70 to 71 °C. As to `CCOC(=O)CNc1c(N)c(=O)c1=O`, the melting point fell in the range of 231 to 233 °C. As to `Cc1ccc(CSc2c(O)cc(-c3ccccc3)oc2=O)cc1`, the melting point fell in the range of 164 to 165 °C. Turning to `COc1ccc(-n2nc(C#N)cc2-c2ccc(S(C)(=O)=O)cc2)cc1Br`, the melting point fell in the range of 184 to 186 °C. The figure for `N#CC1=Cc2ccccc2OC1` is 44 to 45 °C. Take `CN1CCC(=C2c3cc(Cl)ccc3CCn3ncnc32)CC1`: the melting point came out at 176 °C.

The compound `CC(C)OC(=O)C1=C2SCC(=CC(=O)N(C)C)N2CC1` gave a melting point of 159 to 160 °C. In turn, `C=C(C)COc1ccc(Br)cc1CN(CC)c1ccc(-c2cc(O)n(C)n2)nn1` came in with a melting point of 151 to 152 °C.

In turn, `O=C(O)CN(CCCCC(C(=O)O)N(CC(=O)O)CC(=O)O)CC(=O)O` (stereo not given) had a melting point of 216 to 220 °C. The value for `COc1cccc2c(Nc3ccc(O)cc3C)c(C(=O)C(C)C)cnc12` was 243 to 245 °C; that for `CCN(CC)C(=O)c1nn(-c2cccc(OC)c2)c(=O)c2c1c1ccc(Cl)cc1n2C` was 208 °C. The figure for `COC(=O)C1(CCCCl)Sc2cc(OC)ccc2OCC1=O` (stereo not given) is 64 to 65 °C; for `O=C(OCc1ccccc1)[C@@H](CC1=CCCC1)OS(=O)(=O)c1ccccc1[N+](=O)[O-]` it is 122 to 124 °C.

Take `CC(C)=CCOc1ccc2c(=O)c3ccccc3oc2c1C(=O)C=Cc1ccccc1`: the melting point is 116 to 118 °C. The compound `CCOC(NC(=O)c1ccccc1)C(N)=O` (stereo not given) had a melting point of 148 to 150 °C. The compound `Cc1cc(C)c(C(O)c2cc(-n3ccnc3)ccc2Cl)c(C)c1` (stereo not given) came in with a melting point of 206 to 207 °C. The figure for `COc1cccc(N2CCN(Cc3ccccc3C(c3ccc(O)cc3)c3ccc(O)cc3)CC2)c1` is 128 to 130 °C. The value for `NC(=O)c1sc2nc(N3CCC(NCC(O)c4cccc5c4OCO5)CC3)cc(C(F)(F)F)c2c1N` (stereo not given) was 221 to 223 °C; that for `NC(=O)Nc1cccc2c1C(=O)c1c-2n[nH]c1-c1ccc(N2CCNCC2)cc1` was 257 °C; that for `S=C=Nc1c(Br)cccc1Br` was 63 to 65 °C. The compound `CCOC(=O)c1cn(-c2ccccc2)nc1OCc1oc2cc(OCc3nc(-c4ccccc4)oc3C)ccc2c1-c1ccccc1` had a melting point of 143 to 144 °C. As to `CS(=O)(=O)Nc1c(C(=O)c2cccc(Cl)c2)[nH]c2ccc(Cl)cc12`, the melting point was 220 to 221 °C. `NC(=O)N(O)Cc1ccc(OCc2coc(-c3ccc(C(F)(F)F)cc3)n2)cc1` came in with a melting point of 128 to 130 °C. As to `CCc1cn(C2CC(O)C(CNC(=O)Cc3c(Cl)cccc3Cl)O2)c(=O)[nH]c1=O` (stereo not given), the melting point fell in the range of 296 to 297 °C. In the case of `CC1(c2cn(-c3c(Cl)cc(C(F)(F)F)cc3Cl)nc2C#N)CC1(Br)Br` (stereo not given), the melting point was in the range of 133 to 134 °C.

`COC(=O)COc1cccc(NC(=O)c2cc(-c3cccc(F)c3)ccc2F)c1` came in with a melting point of 103 to 104 °C.

For the compound `COc1ccc(C(=O)c2cccnc2N2CCCC2=O)cc1`, the melting point lay in the range of 76 to 77 °C. `C=CCn1c(C)nc(N2CCc3ccccc3CC2)c(C#N)c1=O`: the melting point fell in the range of 141 to 144 °C. For `CSc1ccc2sc(C(N)=O)c(N(C)C)c2c1`, the melting point lay in the range of 140 to 142 °C.

Regarding `CC(=O)Nc1ccc(NC(=O)c2ccc3c(c2)NC(=O)C3(C)C)cc1`, the melting point lay within 294 to 295 °C. The value for `CCCCCCCCNc1nc(NCC(O)C2CC(C)(C)NC(C)(C)C2)nc(NCC(O)C2CC(C)(C)NC(C)(C)C2)n1` (stereo not given) was 117 to 119 °C; that for `COc1cc(C)nc(NC(=O)NS(=O)(=O)c2ccccc2-c2ccccc2)n1` was 199 to 202 °C. For `CC(C)(C)c1ccc(Nc2ncc(-c3ccnc(Cl)n3)c3ccccc23)cc1`, the melting point lay in the range of 257 to 258 °C. The figure for `Cc1cc(S(F)(F)(F)(F)F)ccc1N` is 65 to 66 °C.

As for `CN1CCC2(CC1)NC(=O)N(c1ccc(C#N)c(C(F)(F)F)c1)C2=O`, the melting point was 188 to 189 °C. Take `Cn1nnnc1S(=O)CCCCS(=O)(=O)c1nnnn1C` (stereo not given): the melting point lay within 147 to 149 °C. Regarding `CN(CCF)c1nc2cc(NC(=O)c3c(C(=O)N4CC(F)C4)cnn3C)ccn2n1`, the melting point is 233 to 236 °C. Turning to `O=C(Cn1cccc(O)c1=O)NCCN(CCNC(=O)Cn1cccc(O)c1=O)CCNC(=O)Cn1cccc(O)c1=O`, the melting point fell in the range of 112 to 114 °C. The value for `CCCCC(CBr)CCCc1ccccc1` (stereo not given) was 31 to 33 °C; that for `C=CCn1c(CCl)nc(C(C)C)c1Sc1cccc(Cl)c1` was 84 to 86 °C; that for `COC(=O)C1=C(C)Nc2nc(N3CCOCC3)nc(N3CCOCC3)c2C1c1ccccc1C#N` (stereo not given) was 221 °C.

`Clc1ccc2[nH]nc(N3CCNCC3)c2c1`: the melting point was in the range of 60 to 62 °C. Compound `O=C1OC(c2ccccc2)=NC1=Cc1ccc(Oc2ccccc2)cc1` displayed a melting point of 156 to 158 °C. The figure for `Cc1ccc(C(=O)NC(NC(=S)Nc2ccccc2)C(F)(F)F)cc1` (stereo not given) is 205 to 206 °C; for `CCCC(CCC)n1c(CC)nc2c1c(=O)n(C)c(=O)n2-c1c(C)cc(C)cc1C` it is 195 to 196 °C; for `C=CCc1cc2c(c(CC=C)c1O)CCC(=O)N2` it is 118 to 119 °C. `CCOC(=O)N(C(C)=O)c1ccc(OCc2nc3ccccc3s2)cc1` had a melting point of 155 to 160 °C. Consider `COC(=O)c1cc(Br)c(OC)c2c1OCO2`, for which the melting point lay within 165 to 166 °C. The value for `Cc1ccc(S(=O)(=O)NCCCCOc2ccc(C#N)cc2)cc1` was 107 to 108 °C. The value for `O=C1C(=O)N(Cc2ccc(O)cc2)c2ccc(S(=O)(=O)N3CCC[C@H]3COc3ccccc3)cc21` was 170 to 172 °C; that for `COc1cc(C=CC(=O)c2ccc(I)cc2O)cc(OC)c1OCc1ccccc1` was 124 to 125 °C; that for `COCc1cc(Cl)cc2c1OC(C(F)(F)F)C(C(=O)O)=C2` (stereo not given) was 167 to 168 °C. The value for `CNC(=C[N+](=O)[O-])NCCSCc1ccccn1` was 112 to 113 °C; that for `CC(=O)C1(Nc2ccccc2)CCN(CCc2ccccc2)CC1` was 101 °C. Compound `CCCCC1COC(=S)N1` (stereo not given) displayed a melting point of 71 to 72 °C. `O=C(c1cncnc1)c1ccc(Cl)cc1Cl` came in with a melting point of 75 to 78 °C. The value for `N#CC1(c2ccccc2)CCC(O)CC1` (stereo not given) was 103 to 111 °C; that for `COc1ccc(OC)c2c1CC[C@](O)(C(=O)O)C2` was 91 to 93 °C; that for `Nc1c2c(nc3ccccc13)CCC2` was 180 to 182 °C. In turn, `O=C(O)Cc1ccc(NC(=O)C(COc2ccc(Cl)cc2)NS(=O)(=O)c2ccc(F)cc2)cc1` (racemic) showed a melting point of 184 to 186 °C.

As to `OCC1(CO)CC2C=CC1C2` (stereo not given), the melting point was determined as 110 °C. `CS(=O)c1ccc(-c2nc(-c3nc4ccccc4c(=O)[nH]3)ccc2OCCO)cc1` (stereo not given) displayed a melting point of 261 to 262 °C. For the compound `OCCn1nnnc1S`, the melting point was 135 to 137 °C. The value for `COc1cc2c3c4c(c(-c5ccccc5)cc3n(C)c2cc1CCCO)C(=O)NC4=O` was 105 to 110 °C; that for `CCOC(=O)c1ccc2[nH]cc(CCNC(=O)OC(C)(C)C)c2c1` was 170 to 171 °C. Take `Cc1nnc(-c2ccc3occ(-c4ccc(S(=O)Cc5ccccc5)cc4)c3c2)o1` (stereo not given): the melting point was in the range of 183 to 184 °C. Compound `Cc1cccc(COc2nn3c(-c4ccccc4)nnc3c3ccccc23)n1` gave a melting point of 186 to 187 °C. With `C/C(=C\COc1ccc(Cl)cc1Cl)C(=O)O`, the melting point is 117 to 122 °C.

For the compound `C#CCCCCCCCCOc1cccc(C(N)=O)c1`, the melting point lay within 111 to 112 °C.

For the compound `O=C(O)c1cnc2n(c1=O)CCC=C2Nc1ccccc1`, the melting point lay within 197 to 198 °C. Compound `Cc1nnc2n1-c1sc(CCc3ccc(O)cc3)cc1C(c1ccccc1Cl)=NC2` gave a melting point of 100 °C. The value for `N#Cc1ccc(N)c(F)c1F` was 108 to 110 °C. The compound `Cc1cc(C(=O)O)ccc1-c1ccccc1C(F)(F)F` displayed a melting point of 171 to 174 °C. The figure for `O=c1ccn(-c2cc3[nH]c(=O)c(=O)[nH]c3cc2[N+](=O)[O-])cc1F` is greater than 300 °C; for `CC(NC(=O)Cc1cc(F)cc(F)c1)C(=O)NC1C(=O)NC(Cc2ccccc2)c2ccccc21` (stereo not given) it is 106 to 107 °C. On to `CCCOC(C)c1ccc(-c2ccc(C(=O)O)cc2)cc1` (single isomer, unassigned; (+)), for which the melting point stood at 172 °C.

For `NC(=O)c1ccc(CCCNCC(O)COc2ccccc2)s1` (racemic), the melting point fell in the range of 129 to 130 °C. Turning to `CCCCOc1cc(OCCCc2cn(-c3ccc(C(F)(F)F)cn3)nc2OCC)ccc1CCC(=O)O`, the melting point was in the range of 123 to 124 °C. With `N#Cc1cc(C(=O)NNC(=O)c2occc2-c2ccccc2O)ccc1O`, the melting point was in the range of 135 to 140 °C. For `COc1ccc(S(=O)(=O)c2nccn2C(C)C)cc1`, the melting point fell in the range of 84 to 86 °C. On to `COc1ccc(-c2cc(C(=O)NCc3ccccn3)c(=O)n(CC3CC3)n2)cc1`, for which the melting point was 98.6 to 99.3 °C.

Consider `Cc1ccc(OC(=CC(=O)c2ccc(Br)cc2)C(=O)c2ccc(Br)cc2)cc1`, for which the melting point lay in the range of 137 to 138 °C. The compound `CC1=NN(c2ccccc2)C(=O)C1C(=O)Nc1ccc(O)cc1` (stereo not given) displayed a melting point of 135 to 140 °C. The value for `CNC(=O)C(C)Oc1ncn(-c2ccccc2)n1` (stereo not given) was 134 to 135 °C. The figure for `Cc1oc(-c2ccccc2)nc1CCOc1ccc(C[C@H](NC(=O)C=Cc2ccc(F)cc2F)C(=O)O)cc1` is 199 to 201 °C.
